In US20060069132A1, “Azolecarboxamide herbicides” (priority 2004, published 2006):

Key:
rice [1] = test: Test B flooded paddy test; type: in vivo, Oryza sativa; details: 1000 g ai/ha, scale 0 to 100 (0 no effect, 100 complete control)
Method in brief: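 Read-out: visual comparison with controls, scored 0 to 100, where 100 means complete control and 0 no effect. Formulated chemicals were applied postemergence to plants 2–18 cm tall (1- to 4-leaf), or to flooded-paddy plants at the 2-leaf stage, then held 13 to 15 days under glass.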

ducksalad = test: Test B flooded paddy test; type: in vivo, Heteranthera limosa; details: 1000 g ai/ha, scale 0 to 100 (0 no effect, 100 complete control)
Method in brief: (§1)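 Treated at 2-leaf (paddy) or 1–4-leaf, 2–18 cm (postemergence); greenhouse 13–15 d; visual score vs control, 0 none to 100 complete control; dash = not tested.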

pigweed = test: Test B pre-/postemergence herbicide test; type: in vivo, Amaranthus retroflexus; details: for Pigweed plant response rating: postemergence
Method in brief: (§2)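 Visual rating, 0 (no effect) to 100 (complete control), versus untreated controls after 13–15 d in greenhouse. Pre- and postemergence applications (postemergence plants 2–18 cm, 1–4 leaves); flooded paddy arm at 2-leaf stage. Compounds in non-phytotoxic solvent plus surfactant.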

cocklebur = test: Test B pre-/postemergence herbicide test; type: in vivo, Xanthium strumarium; details: for Cocklebur plant response rating: postemergence, scale 0 (no effect) to 100 (complete control)
Method in brief: (§3)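 Herbicidal effect was judged by eye on a 0–100 scale after plants stood 13 to 15 days in the greenhouse following pre- or postemergence treatment with surfactant-containing formulations.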

wild oat = test: Test B postemergence herbicide test; type: in vivo, Avena fatua; details: postemergence
Method in brief: (§4)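 Plants grow to 1- to 4-leaf stage (2–18 cm) for postemergence spraying, or to 2-leaf stage for the paddy test. Formulated compound is applied. Greenhouse holding lasts 13–15 days. Response is scored visually relative to controls, 0 no effect to 100 complete control; a dash means no result.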

wheat = test: Test B postemergence herbicide test; type: in vivo, Triticum aestivum; parameters: key to Wheat plant response rating: 0 = no effect, 100 = complete control; details: postemergence
Method in brief: as §4

rice [2] = test: Test B pre-/postemergence herbicide test; type: in vivo, Oryza sativa; details: 0 = no effect, 100 = complete control, preemergence; for Rice plant response rating (0 to 100 scale): 125 g ai/ha; for Plant response rating, Rice: 500 g ai/ha, visual rating
Method in brief: as §2

large crabgrass = test: Test B pre-/postemergence herbicide test; type: in vivo, Digitaria sanguinalis; details: for Crabgrass, Large plant response rating: postemergence
Method in brief: as §2

[3] = test system: small flower umbrella sedge; test: Test B flooded paddy test; type: in vivo, Cyperus difformis; details: 1000 g ai/ha, scale 0 to 100 (0 no effect, 100 complete control)
Method in brief: as §1

blackgrass = test: Test B postemergence herbicide test; type: in vivo, Alopecurus myosuroides; details: postemergence, visual rating, scale 0 (no effect) to 100 (complete control)
Method in brief: as §1

giant foxtail = test: Test B pre-/postemergence herbicide test; type: in vivo, Setaria faberi; details: for Foxtail, Giant plant response rating (0 to 100 scale) / Plant response rating, Foxtail, Giant: 0 = no effect, 100 = complete control, preemergence; for Foxtail, Giant plant response rating: postemergence
Method in brief: as §2

Surinam grass = test: Test B pre-/postemergence herbicide test; type: in vivo, Urochloa decumbens; details: for Surinam Grass plant response rating (0 to 100 scale) / Plant response rating, Surinam Grass: 0 = no effect, 100 = complete control, preemergence; for Surinam Grass plant response rating: postemergence
Method in brief: as §2

lambsquarters = test: Test B pre-/postemergence herbicide test; type: in vivo, Chenopodium album; details: for Lambsquarters plant response rating: postemergence
Method in brief: as §2

corn = test: Test B pre-/postemergence herbicide test; type: in vivo, Zea mays; details: for Corn plant response rating (0 to 100 scale) / Plant response rating, Corn: 0 = no effect, 100 = complete control, preemergence; for Corn plant response rating: postemergence
Method in brief: as §2

velvetleaf = test: Test B pre-/postemergence herbicide test; type: in vivo, Abutilon theophrasti; details: for Velvetleaf plant response rating (0 to 100 scale) / Plant response rating, Velvetleaf: 0 = no effect, 100 = complete control, preemergence; for Velvetleaf plant response rating: postemergence
Method in brief: as §2

barnyardgrass [4] = test: Test B flooded paddy test; type: in vivo, Echinochloa crus-galli; details: 1000 g ai/ha, scale 0 to 100 (0 no effect, 100 complete control)
Method in brief: as §1

barnyardgrass [5] = test: Test B pre-/postemergence herbicide test; type: in vivo, Echinochloa crus-galli; details: for Barnyardgrass plant response rating (0 to 100 scale) / Plant response rating, Barnyardgrass: 0 = no effect, 100 = complete control, preemergence; for Plant response rating, Barnyardgrass / Barnyardgrass plant response rating: visual rating; for Barnyardgrass plant response rating: postemergence, scale 0 (no effect) to 100 (complete control)
Method in brief: as §3

morningglory = test: Test B pre-/postemergence herbicide test; type: in vivo, Ipomoea coccinea; details: for Morningglory plant response rating (0 to 100 scale) / Plant response rating, Morningglory: 0 = no effect, 100 = complete control, preemergence; for Morningglory plant response rating: postemergence
Method in brief: as §3

[6] = 125 g ai/ha, 0 = no effect, 100 = complete control, preemergence
[7] = 125 g ai/ha, visual rating, scale 0 (no effect) to 100 (complete control)
[8] = 500 g ai/ha, scale 0 to 100, 0 is no effect, 100 is complete control
[9] = 500 g ai/ha, visual rating, 0 = no effect, 100 = complete control, preemergence

CCNC(=O)c1cc(NC(=O)c2cc(C(C)(C)C)nn2CC)ccn1 [Compound 257]
30: Rice plant response rating (rice [1]) | Oat, Wild plant response rating (wild oat; [8])
70: Cocklebur plant response rating (cocklebur; 500 g ai/ha, visual rating)
20: Wheat plant response rating (wheat; [8]) | Surinam Grass plant response rating (Surinam grass; [8]) | Lambsquarters plant response rating (lambsquarters; [7]) | Plant response rating, Barnyardgrass (barnyardgrass [5]; 500 g ai/ha)
50: Ducksalad plant response rating (ducksalad) | Plant response rating, Foxtail, Giant (giant foxtail; 500 g ai/ha, visual rating) | Lambsquarters plant response rating (lambsquarters; [8])
60: Pigweed plant response rating (pigweed; [7])
80: Pigweed plant response rating (pigweed; [8])
10: Oat, Wild plant response rating (wild oat; [7]) | Crabgrass, Large plant response rating (large crabgrass; [8]) | Blackgrass plant response rating (blackgrass; 500 g ai/ha) | Velvetleaf plant response rating (velvetleaf; [8])
0: Pigweed plant response rating (0 to 100 scale) (pigweed; [6]) | Cocklebur plant response rating (0 to 100 scale) (cocklebur; [6]) | Plant response rating, Cocklebur (cocklebur; [9]) | Cocklebur plant response rating (cocklebur; 125 g ai/ha, visual rating) | Wheat plant response rating (wheat; [7]) | Rice plant response rating (0 to 100 scale) (rice [2]) | Plant response rating, Rice (rice [2]) | Crabgrass, Large plant response rating (0 to 100 scale) (large crabgrass; [6]) | Crabgrass, Large plant response rating (large crabgrass; [7]) | Sedge, Umbrella plant response rating [3] | Blackgrass plant response rating (blackgrass; 125 g ai/ha) | Foxtail, Giant plant response rating (0 to 100 scale) (giant foxtail; 125 g ai/ha) | Foxtail, Giant plant response rating (giant foxtail; [7]) | Foxtail, Giant plant response rating (giant foxtail; [8]) | Surinam Grass plant response rating (0 to 100 scale) (Surinam grass; 125 g ai/ha) | Plant response rating, Surinam Grass (Surinam grass; 500 g ai/ha, visual rating) | Surinam Grass plant response rating (Surinam grass; [7]) | Lambsquarters plant response rating (0 to 100 scale) (lambsquarters; [6]) | Corn plant response rating (0 to 100 scale) (corn; 125 g ai/ha) | Plant response rating, Corn (corn; 500 g ai/ha, visual rating) | Corn plant response rating (corn; [7]) | Corn plant response rating (corn; [8]) | Velvetleaf plant response rating (0 to 100 scale) (velvetleaf; 125 g ai/ha) | Plant response rating, Velvetleaf (velvetleaf; 500 g ai/ha, visual rating) | Velvetleaf plant response rating (velvetleaf; [7]) | Barnyardgrass plant response rating (barnyardgrass [4]) | Barnyardgrass plant response rating (0 to 100 scale) (barnyardgrass [5]; 125 g ai/ha) | Barnyardgrass plant response rating (barnyardgrass [5]; 125 g ai/ha) | Barnyardgrass plant response rating (barnyardgrass [5]; 500 g ai/ha) | Morningglory plant response rating (0 to 100 scale) (morningglory; 125 g ai/ha) | Plant response rating, Morningglory (morningglory; 500 g ai/ha, visual rating) | Morningglory plant response rating (morningglory; [7]) | Morningglory plant response rating (morningglory; [8])

C=CCN(CC=C)C(=O)c1cncc(NC(=O)c2cc(C(C)(C)C)nn2CC)c1 [Compound 262]
40: Lambsquarters plant response rating (0 to 100 scale) (lambsquarters; [6])
10: Cocklebur plant response rating (cocklebur; 500 g ai/ha, visual rating) | Wheat plant response rating (wheat; [8]) | Foxtail, Giant plant response rating (giant foxtail; [7]) | Plant response rating, Surinam Grass (Surinam grass; 500 g ai/ha, visual rating) | Plant response rating, Barnyardgrass (barnyardgrass [5]; 500 g ai/ha) | Barnyardgrass plant response rating (barnyardgrass [5]; 500 g ai/ha)
0: Rice plant response rating (rice [1]) | Ducksalad plant response rating (ducksalad) | Cocklebur plant response rating (0 to 100 scale) (cocklebur; [6]) | Cocklebur plant response rating (cocklebur; 125 g ai/ha, visual rating) | Oat, Wild plant response rating (wild oat; [7]) | Oat, Wild plant response rating (wild oat; [8]) | Wheat plant response rating (wheat; [7]) | Rice plant response rating (0 to 100 scale) (rice [2]) | Plant response rating, Rice (rice [2]) | Crabgrass, Large plant response rating (0 to 100 scale) (large crabgrass; [6]) | Crabgrass, Large plant response rating (large crabgrass; [7]) | Sedge, Umbrella plant response rating [3] | Blackgrass plant response rating (blackgrass; 125 g ai/ha) | Foxtail, Giant plant response rating (0 to 100 scale) (giant foxtail; 125 g ai/ha) | Plant response rating, Foxtail, Giant (giant foxtail; 500 g ai/ha, visual rating) | Surinam Grass plant response rating (0 to 100 scale) (Surinam grass; 125 g ai/ha) | Surinam Grass plant response rating (Surinam grass; [7]) | Corn plant response rating (0 to 100 scale) (corn; 125 g ai/ha) | Plant response rating, Corn (corn; 500 g ai/ha, visual rating) | Corn plant response rating (corn; [7]) | Velvetleaf plant response rating (0 to 100 scale) (velvetleaf; 125 g ai/ha) | Barnyardgrass plant response rating (barnyardgrass [4]) | Barnyardgrass plant response rating (0 to 100 scale) (barnyardgrass [5]; 125 g ai/ha) | Barnyardgrass plant response rating (barnyardgrass [5]; 125 g ai/ha) | Morningglory plant response rating (0 to 100 scale) (morningglory; 125 g ai/ha) | Plant response rating, Morningglory (morningglory; 500 g ai/ha, visual rating) | Morningglory plant response rating (morningglory; [7]) | Morningglory plant response rating (morningglory; [8])
80: Pigweed plant response rating (pigweed; [8]) | Lambsquarters plant response rating (lambsquarters; [8]) | Plant response rating, Velvetleaf (velvetleaf; 500 g ai/ha, visual rating)
90: Plant response rating, Lambsquarters (lambsquarters; [9])
30: Plant response rating, Crabgrass, Large (large crabgrass; [9])
70: Pigweed plant response rating (pigweed; [7])
20: Crabgrass, Large plant response rating (large crabgrass; [8]) | Blackgrass plant response rating (blackgrass; 500 g ai/ha) | Foxtail, Giant plant response rating (giant foxtail; [8]) | Surinam Grass plant response rating (Surinam grass; [8]) | Corn plant response rating (corn; [8]) | Velvetleaf plant response rating (velvetleaf; [7]) | Velvetleaf plant response rating (velvetleaf; [8])
50: Pigweed plant response rating (0 to 100 scale) (pigweed; [6]) | Lambsquarters plant response rating (lambsquarters; [7])
100: Plant response rating, Pigweed (pigweed; [9])
